# ChEMBL document CHEMBL1201862, “PubChem BioAssay data set” (2004)
#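 Grown in 96-well plates, cells were treated for 48 hours with each compound at five concentrations. Insufficient inhibition: endpoint recorded as highest concentration tested. GI50 = concentration required for 50% inhibition of growth.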 Activity calls are given as the source filed them. Rule as the data show it: active = GI50 up to about 1.1 µM and inactive = higher.
# Legend:
# Assay in all cases: NCI-60 cell line screen, 48 h
# [1] = test system: CAKI-1
# [2] = test system: CCRF-CEM
# [3] = test system: HOP-62
# [4] = test system: K562
# [5] = test system: KM12
# [6] = test system: MOLT-4
# [7] = test system: NCI/ADR-RES
# [8] = test system: RXF 393
# [9] = test system: SF-268
# [10] = test system: SN12C
# [11] = test system: SNB-19
# [12] = test system: SNB-75
# [13] = test system: SR
# [14] = test system: TK-10
# [15] = test system: UACC-62
# [16] = test system: SW-620
# [17] = test system: MDA-MB-231
# [18] = test system: MDA-MB-435
# [19] = test system: PC-3
SMILES,GI50 [1],GI50 [2],GI50 [3],GI50 [4],GI50 [5],GI50 [6],GI50 [7],GI50 [8],GI50 [9],GI50 [10],GI50 [11],GI50 [12],GI50 [13],GI50 [14],GI50 [15],GI50 [16],GI50 [17],GI50 [18],GI50 [19]
C[n+]1ccc(Nc2ccc(NC(=O)c3ccc(Nc4cc[n+](C)c5ccc([N+](=O)[O-])cc45)cc3[N+](=O)[O-])cc2)cc1,> 73.1 µM (inactive),33.2 µM (inactive),47.1 µM (inactive),20.8 µM (inactive),47.8 µM (inactive),35.3 µM (inactive),> 52.4 µM (inactive),> 83.8 µM (inactive),30.9 µM (inactive),48.8 µM (inactive),> 59.2 µM (inactive),> 60.1 µM (inactive),> 100 µM (inactive),> 100 µM (inactive),31.3 µM (inactive),–,–,–,–
COC(=O)[C@@H]1C(=O)O[C@@H](c2cc(OC)c(OC)cc2OC)[C@@H]1C(=O)OC.COC(=O)[C@H]1C(=O)O[C@@H](c2cc(OC)c(OC)cc2OC)[C@@H]1C(=O)OC,> 100 µM (inactive),> 100 µM (inactive),> 100 µM (inactive),> 100 µM (inactive),> 100 µM (inactive),> 100 µM (inactive),–,> 100 µM (inactive),> 100 µM (inactive),> 100 µM (inactive),> 100 µM (inactive),> 100 µM (inactive),> 100 µM (inactive),> 100 µM (inactive),> 100 µM (inactive),> 100 µM (inactive),–,–,–
O=[N+]([O-])/C(C(Cl)=C(Cl)Cl)=C(\Nc1ccccc1)n1nnc2ccccc21,> 100 µM (inactive),21.4 µM (inactive),30.6 µM (inactive),> 100 µM (inactive),20.5 µM (inactive),35.5 µM (inactive),41.6 µM (inactive),–,19.8 µM (inactive),> 100 µM (inactive),41.7 µM (inactive),> 100 µM (inactive),–,–,40 µM (inactive),32.2 µM (inactive),27 µM (inactive),26.8 µM (inactive),40.6 µM (inactive)
O=C1NC2OC(CO)C(O)C(O1)C2O (centres undefined),> 100 µM (inactive),> 100 µM (inactive),> 100 µM (inactive),> 100 µM (inactive),> 100 µM (inactive),> 100 µM (inactive),–,> 100 µM (inactive),> 100 µM (inactive),> 100 µM (inactive),> 100 µM (inactive),> 100 µM (inactive),> 100 µM (inactive),> 100 µM (inactive),> 100 µM (inactive),> 100 µM (inactive),–,–,–
CCCC[C@@H]1CCN2C[C@@H](O)[C@@H](O)[C@H]2[C@@H]1O,> 100 µM (inactive),> 100 µM (inactive),–,> 100 µM (inactive),> 100 µM (inactive),> 100 µM (inactive),> 100 µM (inactive),–,> 100 µM (inactive),–,> 100 µM (inactive),> 100 µM (inactive),–,> 100 µM (inactive),> 100 µM (inactive),> 100 µM (inactive),> 100 µM (inactive),> 100 µM (inactive),> 100 µM (inactive)
Cc1ccccc1/N=N/c1ccc(/N=N/c2c(O)ccc3cc(S(=O)(=O)O)cc(S(=O)(=O)O)c23)c(C)c1,> 100 µM (inactive),> 100 µM (inactive),> 100 µM (inactive),> 100 µM (inactive),> 100 µM (inactive),> 100 µM (inactive),> 100 µM (inactive),> 100 µM (inactive),> 100 µM (inactive),–,> 100 µM (inactive),> 100 µM (inactive),> 100 µM (inactive),> 100 µM (inactive),> 100 µM (inactive),> 100 µM (inactive),> 100 µM (inactive),> 100 µM (inactive),> 100 µM (inactive)
Cn1c(=O)oc2cc(C3CCC(=O)N3Cc3csc(-c4ccccc4)n3)ccc21 (centres undefined),> 100 µM (inactive),> 100 µM (inactive),> 100 µM (inactive),64.6 µM (inactive),76.2 µM (inactive),58.2 µM (inactive),–,39.9 µM (inactive),> 100 µM (inactive),> 100 µM (inactive),> 100 µM (inactive),25.3 µM (inactive),63.7 µM (inactive),> 100 µM (inactive),> 100 µM (inactive),> 100 µM (inactive),–,–,–
CCC1C(C(=O)Nc2ccccc2C)=C(C)NC(C)=C1c1ccccc1C (centres undefined),> 100 µM (inactive),55.1 µM (inactive),> 100 µM (inactive),80 µM (inactive),> 100 µM (inactive),> 100 µM (inactive),–,> 100 µM (inactive),> 40.6 µM (inactive),> 100 µM (inactive),> 100 µM (inactive),> 100 µM (inactive),2.88 µM (inactive),> 100 µM (inactive),> 100 µM (inactive),> 43.1 µM (inactive),–,–,–
C/C(CC(=O)Nc1ccc([N+](=O)[O-])cc1)=N\NC(N)=O,> 100 µM (inactive),> 44.6 µM (inactive),> 100 µM (inactive),> 70.8 µM (inactive),> 100 µM (inactive),> 100 µM (inactive),–,> 100 µM (inactive),98.2 µM (inactive),> 100 µM (inactive),> 100 µM (inactive),> 100 µM (inactive),24.4 µM (inactive),> 100 µM (inactive),> 71.3 µM (inactive),> 100 µM (inactive),–,–,–
Cc1ccc2c(c1)SC(c1cc3c(cc1Br)OCO3)S2 (centres undefined),> 76 µM (inactive),> 31.6 µM (inactive),> 31.6 µM (inactive),26.9 µM (inactive),26.7 µM (inactive),31.4 µM (inactive),–,12.3 µM (inactive),> 31.6 µM (inactive),> 31.6 µM (inactive),> 100 µM (inactive),0.516 µM (active),23.3 µM (inactive),> 31.6 µM (inactive),> 31.6 µM (inactive),86.1 µM (inactive),–,–,–
Cc1cccc(C)c1NC(=O)CCc1nnc2s/c(=C\c3ccc(Cl)cc3)c(=O)n12,> 100 µM (inactive),> 100 µM (inactive),22 µM (inactive),> 100 µM (inactive),> 100 µM (inactive),> 100 µM (inactive),–,36.8 µM (inactive),> 100 µM (inactive),> 100 µM (inactive),> 100 µM (inactive),73.8 µM (inactive),> 100 µM (inactive),42.3 µM (inactive),> 100 µM (inactive),21.2 µM (inactive),–,–,–
CCOC(=O)c1c(/C=N\Nc2ccccc2)nc2ccccc2c1-c1ccccc1,68.9 µM (inactive),19.2 µM (inactive),39 µM (inactive),29.5 µM (inactive),43.9 µM (inactive),20.7 µM (inactive),–,65.8 µM (inactive),56.5 µM (inactive),38.1 µM (inactive),79.1 µM (inactive),46.5 µM (inactive),19.2 µM (inactive),> 100 µM (inactive),25 µM (inactive),38.1 µM (inactive),–,–,–
